Experimental data reported in ChEMBL document CHEMBL3112402, “Chemical constituents of Plectranthus amboinicus and the synthetic analogs possessing anti-inflammatory activity” (Bioorg Med Chem, 2014).

System: not listed separately
Experiment: Antiinflammatory activity in PMA-activated human U937 cells assessed as inhibition of LPS-induced TNF-alpha expression preincubated for 2 hrs followed by LPS challenge measured after 6 hrs by ELISA
Assay type: functional, cell-based
Conditions: U-937

| SMILES | IC50 [µM] |
| --- | --- |
| C/C=C1\C(=O)C=C(C(C)C)C1=O | 23.7 |
| CC1=CC(=O)/C(=C\C(C)C)C1=O | 10.1 |
| CC(C)C=C1C(=O)C=CC1=O | 5.1 |
| CC1=CC(=O)C(C(C)C)=CC1=O [THYMOQUINONE] | 102 |

Molecular target: Transcription factor Jun (Homo sapiens, UniProt P05412)
Experiment: Inhibition of transcription factor AP-1 binding to oligonucleotide containing TPA-responsive element in TPA-activated human HeLa cells after 1 hr by ELISA
Assay type: cell-based
Conditions: not given

Transcription factor Jun, sequence (P05412 whole entry): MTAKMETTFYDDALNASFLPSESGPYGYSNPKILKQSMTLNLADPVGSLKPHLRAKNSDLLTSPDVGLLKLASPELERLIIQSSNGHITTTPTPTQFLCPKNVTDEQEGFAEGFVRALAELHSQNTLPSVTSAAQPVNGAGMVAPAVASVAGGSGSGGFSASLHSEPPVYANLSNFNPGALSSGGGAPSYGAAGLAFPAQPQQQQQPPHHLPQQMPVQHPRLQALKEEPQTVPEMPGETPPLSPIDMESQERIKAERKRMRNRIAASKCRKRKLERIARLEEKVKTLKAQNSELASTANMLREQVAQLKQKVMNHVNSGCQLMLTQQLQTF

| SMILES | IC50 [µM] |
| --- | --- |
| O=C(O)/C(=C\c1ccc(O)c(O)c1)C(c1ccc(O)c(O)c1)C(O)C(=O)O (stereo not drawn) | 11.9 |
| O=C(O[C@H](Cc1ccc(O)c(O)c1)C(=O)O)[C@H]1[C@H](C(=O)O[C@H](Cc2ccc(O)c(O)c2)C(=O)O)[C@H](c2ccc(O)c(O)c2)[C@H]1c1ccc(O)c(O)c1 | 1.3 |
| O=C(O[C@H](Cc1ccc(O)c(O)c1)C(=O)O)C1=Cc2ccc(O)c(O)c2C(C(=O)O[C@H](Cc2ccc(O)c(O)c2)C(=O)O)C1c1ccc(O)c(O)c1 (stereo partly drawn) | 1.6 |
| O=C(/C=C/c1ccc(O)c(O)c1)O[C@H](Cc1ccc(O)c(O)c1)C(=O)O [ROSMARINIC ACID] | 16.2 |
